Laboratory results: ChEMBL document CHEMBL1201862, “PubChem BioAssay data set” (2004)
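The compound was tested at five concentrations on cells cultured in 96-well plates, with a 48-hour exposure period. GI50 marks 50% less growth.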 The source made the active and inactive calls. Rule as the data show it: active = GI50 up to about 1.1 µM and inactive = higher.

Assays:
Experiment in all cases: NCI anticancer screen, dose series, 48 h
SK-MEL-28 = system: SK-MEL-28
NCI-H522 = system: NCI-H522
A498 = system: A498
OVCAR-5 = system: OVCAR-5
SK-MEL-5 = system: SK-MEL-5
HCC 2998 = system: HCC 2998
HOP-92 = system: HOP-92
LOX IMVI = system: LOX IMVI
786-0 = system: 786-0
KM-20L2 = system: KM-20L2
HL-60 = system: HL-60
SF-268 = system: SF-268
CAKI-1 = system: CAKI-1
Malme-3M = system: Malme-3M
SNB-75 = system: SNB-75
COLO 205 = system: COLO 205
SN12C = system: SN12C
HT-29 = system: HT-29

Row | SMILES | GI50 (SK-MEL-28) | GI50 (NCI-H522) | GI50 (A498) | GI50 (OVCAR-5) | GI50 (SK-MEL-5) | GI50 (HCC 2998) | GI50 (HOP-92) | GI50 (LOX IMVI) | GI50 (786-0) | GI50 (KM-20L2) | GI50 (HL-60) | GI50 (SF-268) | GI50 (CAKI-1) | GI50 (Malme-3M) | GI50 (SNB-75) | GI50 (COLO 205) | GI50 (SN12C) | GI50 (HT-29)
1 | CC(=O)O[C@H]1C(N(C)C(=O)c2ccccc2)CC[C@]2(C)C3CC[C@@]4(C)C(CC(O)[C@@H]4C(C)N(C)C)[C@@H]3CCC12 (stereo partly drawn) | > 100 µM (inactive) | > 100 µM (inactive) | > 100 µM (inactive) | > 100 µM (inactive) | > 100 µM (inactive) | > 100 µM (inactive) | > 100 µM (inactive) | > 100 µM (inactive) | > 100 µM (inactive) | > 100 µM (inactive) | 89.5 µM (inactive) | > 100 µM (inactive) | > 100 µM (inactive) | > 100 µM (inactive) | > 100 µM (inactive) | > 100 µM (inactive) | > 100 µM (inactive) | > 100 µM (inactive)
2 | N#CCCn1c(S)nnc1CCC(=O)Nc1ccc(Cl)cc1Cl | > 100 µM (inactive) | > 100 µM (inactive) | > 100 µM (inactive) | > 100 µM (inactive) | > 100 µM (inactive) | > 100 µM (inactive) | > 100 µM (inactive) | 71.6 µM (inactive) | > 100 µM (inactive) | > 100 µM (inactive) | 94.2 µM (inactive) | > 100 µM (inactive) | > 100 µM (inactive) | > 100 µM (inactive) | > 100 µM (inactive) | > 100 µM (inactive) | > 100 µM (inactive) | > 100 µM (inactive)
3 | CCOC(=O)c1sc2c(sc(=O)n2-c2ccccc2)c1O | > 100 µM (inactive) | > 100 µM (inactive) | > 100 µM (inactive) | > 100 µM (inactive) | > 100 µM (inactive) | > 100 µM (inactive) | > 100 µM (inactive) | 55.7 µM (inactive) | > 100 µM (inactive) | > 100 µM (inactive) | > 100 µM (inactive) | > 100 µM (inactive) | > 100 µM (inactive) | > 100 µM (inactive) | > 100 µM (inactive) | 45.3 µM (inactive) | > 100 µM (inactive) | > 100 µM (inactive)
4 | O=C(CCN1CCC(CCO)CC1)Nc1ccc2c(c1)C(=O)c1ccc(NC(=O)CCN3CCC(CCO)CC3)cc1C2=O | 26.1 µM (inactive) | 11.8 µM (inactive) | 19.9 µM (inactive) | > 100 µM (inactive) | 19.4 µM (inactive) | 14.4 µM (inactive) | 29.8 µM (inactive) | 8.39 µM (inactive) | 6.7 µM (inactive) | 27.9 µM (inactive) | 24.6 µM (inactive) | 11.3 µM (inactive) | 34.8 µM (inactive) | 11 µM (inactive) | 20.2 µM (inactive) | 10.7 µM (inactive) | 16.5 µM (inactive) | 13.5 µM (inactive)
5 | COc1cc2c(c(OC)c1O)-c1ccc(SC)c(=O)cc1C(NC(C)=O)CC2 (stereo not drawn) | < 0.01 µM (active) | < 0.01 µM (active) | 0.195 µM (active) | 4.83 µM (inactive) | < 0.01 µM (active) | 0.0261 µM (active) | 0.0124 µM (active) | < 0.01 µM (active) | 0.0545 µM (active) | 0.0129 µM (active) | < 0.01 µM (active) | < 0.0107 µM (active) | 0.285 µM (active) | < 0.01 µM (active) | < 0.01 µM (active) | < 0.01 µM (active) | 0.0518 µM (active) | 0.0119 µM (active)
6 | CNC(=O)OCc1nc(SC2CCCCO2)n(C)c1COC(=O)NC (stereo not drawn) | > 100 µM (inactive) | > 100 µM (inactive) | > 100 µM (inactive) | > 100 µM (inactive) | > 100 µM (inactive) | > 100 µM (inactive) | > 100 µM (inactive) | > 100 µM (inactive) | > 100 µM (inactive) | > 100 µM (inactive) | > 100 µM (inactive) | > 100 µM (inactive) | > 100 µM (inactive) | > 100 µM (inactive) | > 100 µM (inactive) | > 100 µM (inactive) | > 100 µM (inactive) | > 100 µM (inactive)
